Source: US12319690B2, “Selective CDK 4/6 inhibitor cancer therapeutics” (LUNELLA BIOTECH, INC., priority 2019, dated 2025)

Columns and labels:
Assay type in all cases: cell-based, human
[1] = system: MCF7 cell line (ER+ breast cancer); assay: 2D-cell viability assay (Hoechst staining), MCF7 monolayer; settings: for IC50: Homo sapiens, MCF7, 2D-cell viability assay, MCF7
Text: (§1) As used in the tables, “IC50 (MCF7 mammosphere)” refers to the half maximal inhibitory concentration in the 3D-mammosphere assay, using the ER+ breast cancer cell line, MCF7. The term “IC50 (MCF7 monolayer)” refers to the half maximal inhibitory concentration in the 2D-cell viability assay, using the ER+ breast cancer cell line, MCF7. The term “IC50 (BJ1 monolayer)” refers to the half maximal inhibitory concentration in the 2D-cell viability assay, using the immortalized non-tumoral fibroblast cell line, hTERT-BJ1. The term “SI (mammosphere/monolayer MCF7)” refers to the mammosphere selectivity index, a ratio between IC50 values comparing the biological activity in the 3D and 2D assays against MCF7. The term “SI (BJ1/MCF7 monolayer)” refers to the cancer selectivity index, a ratio between IC50 values comparing the biological activity in the cell viability assays against MCF7 and hTERT-BJ1. A Hoechst-based viability assay was used to characterize the selectivity of compounds according to the present approach, for the preferential targeting of cancer cells. Briefly, MCF7 cell monolayers were treated with a compound at concentrations ranging from 1 μM to 100 μM, for a period of one day. Cell viability was assessed using Hoechst 33342, a nuclear dye that stains DNA in live cells. The viability of normal human fibroblasts (hTERT-BJ1) treated with the compounds described herein was also assessed in parallel. Quantitation was performed with a plate-reader.

[2] = system: MCF7 cell line (ER+ breast cancer); assay: 3D-mammosphere formation assay; settings: for IC50: Homo sapiens, MCF7, 3D-mammosphere assay; for inhibition of MCF7 cells in the mammosphere assay compared to parent compound: concentrations from 1 μM to 100 μM; for SI (mammosphere/monolayer MCF7): mammosphere selectivity index, ratio between IC50 values in the 3D and 2D assays against MCF7
Text: As used in the tables, “IC50 (MCF7 mammosphere)” refers to the half maximal inhibitory concentration in the 3D-mammosphere assay, using the ER+ breast cancer cell line, MCF7. The term “IC50 (MCF7 monolayer)” refers to the half maximal inhibitory concentration in the 2D-cell viability assay, using the ER+ breast cancer cell line, MCF7. The term “IC50 (BJ1 monolayer)” refers to the half maximal inhibitory concentration in the 2D-cell viability assay, using the immortalized non-tumoral fibroblast cell line, hTERT-BJ1. The term “SI (mammosphere/monolayer MCF7)” refers to the mammosphere selectivity index, a ratio between IC50 values comparing the biological activity in the 3D and 2D assays against MCF7. The term “SI (BJ1/MCF7 monolayer)” refers to the cancer selectivity index, a ratio between IC50 values comparing the biological activity in the cell viability assays against MCF7 and hTERT-BJ1.
FIGS. 1-3 are dose-response curves for various compounds described herein, using the mammosphere assay. The assay was performed using the MCF7 cell line. The curves are plotted as a mean of two independent experiments, and the standard deviation for each point is represented by vertical bars. The inhibition percentage is shown as a function of the log of the concentration (μM). […] Similar effects are expected for compounds having the general formula [1D].
Mammosphere formation assay: A single cell suspension was prepared using enzymatic (1× Trypsin-EDTA, Sigma Aldrich, cat. #T3924), and manual disaggregation (25 gauge needle). Five thousand cells were plated with in mammosphere medium (DMEM-F12/B27/20 ng/ml EGF/PenStrep), under non-adherent conditions, in six wells plates coated with 2-hydroxyethylmethacrylate (poly-HEMA, Sigma, cat. #P3932). Cells were grown for 5 days and maintained in a humidified incubator at 37° C. at an atmospheric pressure in 5% (v/v) carbon dioxide/air. After 5 days, 3D spheroids with a diameter greater than 50 μm were counted using a microscope, fitted with a graticule eye-piece, and the percentage of cells which formed spheroids was calculated and normalized to one (1=100% MFE; mammosphere forming efficiency). Mammosphere assays were performed in triplicate and repeated three times independently.

[3] = system: hTERT-BJ1 (immortalized non-tumoral fibroblast cell line); assay: 2D-cell viability assay (Hoechst staining), hTERT-BJ1 monolayer; settings: for IC50: Homo sapiens, Fibroblast, 2D-cell viability assay, hTERT-BJ1; for SI (BJ1/MCF7 monolayer): cancer selectivity index, ratio between IC50 values in cell viability assays against MCF7 and hTERT-BJ1
Text: as §1

Row | Structure (SMILES) | IC50 [1] [µM] | non-toxic in the 2D-cell viability assay up to a concentration ([1]; MCF7 monolayer) [µM] | IC50 ([2]; MCF7) [µM] | inhibition of MCF7 cells in the mammosphere assay compared to parent compound [2] | SI (mammosphere/monolayer MCF7) [2] | IC50 [3] [µM] | SI (BJ1/MCF7 monolayer) [3] | IC50 ([3]; Table 3, unit inferred) [µM] | potency against MCF7 cells compared to parent compound (dose-response curves) ([1]; Hoechst staining assay, MCF7, FIG. 4 (FIG. 1 cited in same passage)) | inhibition of cell propagation ([2]; at concentrations as low as 1 μM, preliminary laboratory evaluations) [%] | fold improvement in potency in the 3D-mammosphere assay compared to the parent compound ([2]; vs. Ribociclib, MCF7) [fold] | potency on hTERT-BJ1 compared to Compound [1C] (dose-response curves) ([3]; Hoechst staining assay, hTERT-BJ1, FIG. 7)
1 | CCCCCCCCCCCCCC(=O)N1CCN(c2ccc(Nc3ncc4c(C)c(C(C)=O)c(=O)n(C5CCCC5)c4n3)nc2)CC1 [Compound [2C], 6-acetyl-8-cyclopentyl-5-methyl-2-[[5-(4-tetradecanoylpiperazin-1-yl)-2-pyridyl]amino]pyrido[2,3-d]pyrimidin-7-one] | > 30 | ≤ 30 | ~5.1 | remarkably improved inhibition | >5 | > 90 | – | – | – | – | – | –
2 | CC(=O)c1c(C)c2cnc(Nc3ccc(N4CCNCC4)cn3)nc2n(C2CCCC2)c1=O [Palbociclib, 6-acetyl-8-cyclopentyl-5-methyl-2-(5-piperazin-1-yl-pyridin-2-ylamino)-8H-pyrido[2,3-d]pyrimidin-7-one] | ~0.1 | – | ~0.2 | – | non-selective | > 90 | >900 | – | – | – | – | –
3 | CCN1CCN(Cc2ccc(Nc3ncc(F)c(-c4cc(F)c5nc(C)n(C(C)C)c5c4)n3)nc2)CC1 [Abemaciclib] | 11 | – | < 0.04 | – | >50 | – | 2.7 | 30 ± 6 | – | – | – | –
4 | CCCCCCCCCCCCCC(=O)N1CCN(c2ccc(Nc3ncc4cc(C(=O)N(C)C)n(C5CCCC5)c4n3)nc2)CC1 [Compound [1C], 7-cyclopentyl-N,N-dimethyl-2-[[5-(4-tetradecanoylpiperazin-1-yl)-2-pyridyl]amino]pyrrolo[2,3-d]pyrimidine-6-carboxamide] | ~2 | – | ~0.2 | remarkably improved inhibition | 10 | > 90 | >45 | – | more potent | ~100 | 7 | –
5 | CN(C)C(=O)c1cc2cnc(Nc3ccc(N4CCNCC4)cn3)nc2n1C1CCCC1 [Ribociclib, 7-cyclopentyl-N,N-dimethyl-2-[(5-piperazin-1-ylpyridin-2-yl)amino]pyrrolo[2,3-d]pyrimidine-6-carboxamide] | ~2 | – | ~1.5 | – | 1.3 | > 90 | >45 | – | – | – | – | more potent at most concentrations tested
